Laboratory results from US12479816B2, “20-HETE formation inhibitors” (UNIVERSITY OF PITTSBURGH—OF THE COMMONWEALTH SYSTEM OF …, priority 2019, dated 2025).

Key:
[1] = target: T1, rCYP4F2 (Homo sapiens, UniProt P78329); experiment: Inhibition of 20-HETE formation at 250 or 500 nM in rCYP4F2 incubations; type: biochemical; conditions: 500 nM compound; rCYP4F2 25 pmol/mL; read-out: rCYP4F2 % inh. @ 500 nM
T1 sequence (P78329 5-520): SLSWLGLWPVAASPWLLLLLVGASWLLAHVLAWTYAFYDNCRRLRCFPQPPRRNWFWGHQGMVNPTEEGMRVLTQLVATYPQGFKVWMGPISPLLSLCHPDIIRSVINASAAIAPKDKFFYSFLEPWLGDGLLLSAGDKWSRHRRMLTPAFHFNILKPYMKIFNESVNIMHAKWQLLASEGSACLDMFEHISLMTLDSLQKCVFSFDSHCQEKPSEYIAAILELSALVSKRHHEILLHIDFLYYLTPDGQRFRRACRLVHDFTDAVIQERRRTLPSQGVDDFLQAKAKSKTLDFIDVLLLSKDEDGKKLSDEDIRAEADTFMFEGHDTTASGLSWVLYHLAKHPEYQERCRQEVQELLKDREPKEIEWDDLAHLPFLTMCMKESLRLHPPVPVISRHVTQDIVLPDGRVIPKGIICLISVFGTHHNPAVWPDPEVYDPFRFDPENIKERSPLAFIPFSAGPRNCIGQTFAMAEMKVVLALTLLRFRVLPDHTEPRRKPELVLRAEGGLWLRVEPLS
Experimental: (§1) To screen the inhibitory effects against 20-HETE formation, compounds were screened in HLM, RLM, RKM and rCYP4F2 microsomal incubations. Compounds dissolved in either 100% methanol or 100% DMSO to yield 10 mM stock solution. Microsomal incubations containing HLM, RLM, RKM (300 μg/ml) or rCYP4F2 (25 pmol/mL), AA (100 μM), NADPH (1 mM) treated with test compounds at various concentrations (500 nM or 250 nM) in a 1 ml total volume in incubation buffer (0.12 M potassium phosphate buffer containing 5 mM magnesium chloride). Reaction was started by adding NADPH to the incubates and was carried out at 37° C. in a shaking water bath for 20 min. Reaction was stopped by placing tubes on ice, followed by adding 125 μl 20-HETE-d6 as internal standard to each sample. Microsomal incubations were extracted with 3 ml ethyl ether twice, dried down under nitrogen gas and reconstituted in 125 μl 80:20 methanol:deionized H2O for analysis. 20-HETE formation was quantified using a validated UPLC-MS/MS assay and normalized by vehicle group. Each compound had three replications (n=3). Vehicle group was used as control to calculate percentage of 20-HETE formation rate. HET0016 (250 nM) was used as positive control. Incubates without NADPH group served as the negative control. An Acquity ultra performance LC autosampler (Waters, Milford, MA) was used to isolate 20-HETE on an UPLC BEH C18, 1.7 μm (2.1×100 mm) reversed-phase column (Waters, Milford, MA) protected by a guard column (2.1×5 mm; Waters, Milford, MA) of the same packing material. Column temperature was maintained at 55° C. Mobile phases consisted of 0.005% acetic acid, 5% acetonitrile in deionized water (A) and 0.005% acetic acid in acetonitrile (B). The flow rate for mobile phases is 0.5 ml/min. The initial mixture of mobile phase was 65:35 of A and B. Mobile phase B increased at 0.4 minutes after injection from 35% to 70% in a linear gradient over 4 minutes, and again increased to 95% over 0.5 minutes where it remained for 0.3 minutes. This was followed by a linear return to initial conditions over 0.1 minutes with a 1.5 minute pre-equilibration period prior to the next sample run. Total run time was 6.4 minutes for each injection. Injection volumes were 7.5 μl. Mass spectrometric analysis was carried out using a TSQ Quantum Ultra (Thermo Fisher Scientific, San Jose, CA) triple quadrupole mass spectrometer using heated electrospray ionization (HESI). Mass spectrometer was operated in negative selective reaction monitoring (SRM) mode with unit resolutions at both Q1 and Q3 set at 0.70 Da full width at half maximum. Scan time was set at 0.01 s and collision gas pressure was 1.3 mTorr. Quantitation of 20-HETE by SRM was performed by monitoring the m/z. Analytical data was acquired and analyzed using Xcaliber 3.0 data system (ThermoFinnigan, San Jose, CA).

[2] = test system: 20-HETE formation (CYP4) in RLM; experiment: Inhibition of 20-HETE formation at 250 or 500 nM in RLM microsomal incubations; type: biochemical, rat; conditions: 500 nM compound; RLM 300 μg/ml
Experimental: as §1

[3] = test system: 20-HETE formation (CYP4) in HLM; experiment: Inhibition of 20-HETE formation at 250 or 500 nM in HLM microsomal incubations; type: biochemical, human; conditions: 500 nM compound; HLM 300 μg/ml, AA 100 μM, 20 min
Experimental: as §1

SMILES	inhibition at 0.5 µM [1] [%]	RLM % inh. @ 500 nM [2] [%]	HLM % inh. @ 500 nM [3] [%]
COC(=O)c1cccc(C2CCN(c3ccn[nH]3)CC2)c1 [Compound 56, Methyl 3-(1-(1H-pyrazol-5-yl)piperidin-4-yl)benzoate]	11.4	0.00	0.00
O=C(c1ccc(C2CCN(c3ccn[nH]3)CC2)cc1)N1CCCC1 [Compound 78, (4-(1-(1H-Pyrazol-5-yl)piperidin-4-yl)phenyl)(pyrrolidin-1-yl)methanone]	31	0.00	83.6
Cc1cc(N2CCC(c3ccccc3)CC2)[nH]n1 [Compound 38, 1-(5-Methyl-1H-pyrazol-5-yl)-4-phenylpiperidine]	22.3	0.00	0.00
COc1ccccc1C1CCN(c2ccn[nH]2)CC1 [Compound 21, 4-(2-Methoxyphenyl)-1-(1H-pyrazol-5-yl)piperidine]	2	0.00	8.80
Cc1cccc(CC2CCN(c3cn[nH]c3)CC2)c1 [Compound 94, 4-(3-Methylbenzyl)-1-(1H-pyrazol-4-yl)piperidine]	60.3	13.50	61.3
FC(F)(F)c1ccnc(C2CCN(c3cn[nH]c3)CC2)c1 [Compound 86, 2-(1-(1H-pyrazol-4-yl)piperidin-4-yl)-4-(trifluoromethyl)pyridine]	49.4	18.10	37.9
COc1ccc(SC2CCN(c3ccn[nH]3)CC2)cc1 [Compound 68, 4-((4-Methoxyphenyl)thio)-1-(1H-pyrazol-5-yl)piperidine]	70.9	0	48
Fc1ccccc1SC1CCN(c2cn[nH]c2)CC1 [Compound 92, 4-((2-Fluorophenyl)thio)-1-(1H-pyrazol-4-yl)piperidine]	87.1	0.00	77.3
c1ccc(SC2CCN(c3ccn[nH]3)CC2)cc1 [Compound 39, 4-(Phenylthio)-1-(1H-pyrazol-5-yl)piperidine]	22.7	0.00	6.00
COc1cccc(SC2CCN(c3cn[nH]c3)CC2)c1 [Compound 76, 4-((3-Methoxyphenyl)thio)-1-(1H-pyrazol-4-yl)piperidine]	71	0.00	84
COC(=O)c1cccc(C2CCN(c3cn[nH]c3)CC2)c1 [Compound 57, Methyl 3-(1-(1H-pyrazol-4-yl)piperidin-4-yl)benzoate]	41.2	43.10	0.00
FC(F)(F)c1cncc(C2CCN(c3cn[nH]c3)CC2)c1 [Compound 95, 4 3-(1-(1H-Pyrazol-4-yl)piperidin-4-yl)-5-(trifluoromethyl)pyridine]	26.3	15.40	42.8
COc1ccc(CC2CCN(c3ccn[nH]3)CC2)cc1 [Compound 79, 4-(4-Methoxybenzyl)-1-(1H-pyrazol-5-yl)piperidine]	62	4.00	60
Cc1n[nH]cc1N1CCC(c2ccccc2)CC1 [Compound 37, 1-(3-Methyl-1H-pyrazol-4-yl)-4-phenylpiperidine]	31.9	0.00	0.00

Second part, the compound after the results:

inhibition at 0.5 µM [1] [%]	RLM % inh. @ 500 nM [2] [%]	HLM % inh. @ 500 nM [3] [%]	SMILES
41.3	20.30	21.90	O=[N+]([O-])c1ccc(C2CCN(c3ccn[nH]3)CC2)cc1 [Compound 112, 4-(4-Nitrophenyl)-1-(1H-pyrazol-5-yl)piperidine]
67.6	14.30	30.5	CS(=O)(=O)Nc1ccc(C2CCN(c3cn[nH]c3)CC2)cc1 [Compound 113, N-(4-(1-(1H-pyrazol-4-yl)piperidin-4-yl)phenyl)methanesulfonamide]
60.1	22.30	43.5	O=[N+]([O-])c1ccc(C2CCN(c3cn[nH]c3)CC2)cc1 [Compound 111, 4-(4-Nitrophenyl)-1-(1H-pyrazol-4-yl)piperidine]
0	0.00	0.00	FC(F)(F)c1cncc(C2CCN(c3ccn[nH]3)CC2)c1 [Compound 103, 3-(1-(1H-Pyrazol-5-yl)piperidin-4-yl)-5-(trifluoromethyl)pyridine]
16.4	0.00	63.10	O=S(=O)(c1ccc(C2CCN(c3ccn[nH]3)CC2)cc1)N1CCCC1 [Compound 96, 1-(1H-Pyrazol-5-yl)-4-(4-(pyrrolidin-1-ylsulfonyl)phenyl)piperidine]
0	0.00	17.70	COc1cc(CC2CCN(c3ccn[nH]3)CC2)ccn1 [Compound 99, 4-((1-(1H-Pyrazol-5-yl)piperidin-4-yl)methyl)-2-methoxypyridine]
78	17.00	77.30	Nc1ccc(C2CCN(c3cn[nH]c3)CC2)cc1 [Compound 105, 4-(1-(1H-pyrazol-4-yl)piperidin-4-yl)aniline]
25	5.00	37.20	COc1cc(CC2CCN(c3cn[nH]c3)CC2)ccn1 [Compound 98, 4-((1-(1H-Pyrazol-4-yl)piperidin-4-yl)methyl)-2-methoxypyridine]
22.9	0.00	35.30	Cc1cccc(CC2CCN(c3ccn[nH]3)CC2)c1 [Compound 97, 4-(3-Methylbenzyl)-1-(1H-pyrazol-5-yl)piperidine]
